Data: the NIST ThermoML archive (doi:10.1021/je050056e)

Settings: Liquid; for mass density: 101.33 kPa

FC(F)(F)C(F)(F)C(F)(F)C(F)(F)C(F)(F)C(F)(F)C(F)(F)C(F)(F)Br [1-bromoperfluorooctane]
Settings	mass density [kg/m3]	vapor or sublimation pressure [kPa]
288.15 K	1938.6	–
288.22 K	–	0.38
293.15 K	1926.7	–
293.2 K	–	0.54
298.08 K	–	0.69
298.15 K	1914.8	–
303.15 K	1902.8	–
303.26 K	–	0.98
308.15 K	1890.8	–
308.22 K	–	1.3
313.15 K	1878.6	–
313.18 K	–	1.67
318.09 K	–	2.24
322.92 K	–	2.89
327.88 K	–	3.69
332.78 K	–	4.7

FC(F)C(F)(F)C(F)(F)C(F)(F)C(F)(F)C(F)(F)C(F)(F)C(F)(F)F [1H-perfluorooctane]
Settings	mass density [kg/m3]	vapor or sublimation pressure [kPa]
288.15 K	1773.6	–
288.35 K	–	1.18
293.15 K	1761.8	–
293.26 K	–	1.6
298.15 K	1749.9	–
298.26 K	–	2.18
303.15 K	1737.9	–
303.19 K	–	2.84
308.15 K	1725.8	3.72
313.13 K	–	4.87
313.15 K	1713.6	–
318.06 K	–	6.22
323.01 K	–	8.07
328 K	–	10.25
332.89 K	–	12.83

FC(F)(F)C(F)(F)C(F)(F)C(F)(F)C(F)(F)C(F)(F)C(F)(F)C(F)(F)C(F)(F)F [eicosafluorononane]
Settings	mass density [kg/m3]	vapor or sublimation pressure [kPa]
288.15 K	1812.2	–
288.18 K	–	0.68
293.15 K	1800.1	–
293.18 K	–	0.94
298.11 K	–	1.29
298.15 K	1787.9	–
303.1 K	–	1.71
303.15 K	1775.7	–
308.19 K	–	2.32
313.15 K	1750.9	–
313.17 K	–	3.06
318.22 K	–	3.99
323.15 K	–	5.14
328.15 K	–	6.59
333.15 K	–	8.42

Fc1c(F)c(F)c(F)c(F)c1F [hexafluorobenzene]
Settings	mass density [kg/m3]	vapor or sublimation pressure [kPa]
288.15 K	1628.9	–
288.23 K	–	6.9
293.15 K	1617.5	–
293.51 K	–	9
297.98 K	–	11.16
298.15 K	1606.2	–
302.96 K	–	14.2
303.15 K	1594.8	–
307.96 K	–	17.93
308.15 K	1583.3	–
312.96 K	–	22.25
313.15 K	1571.8	–
317.96 K	–	27.56
322.96 K	–	33.85
327.95 K	–	41.16
333.01 K	–	49.95

Fc1c(F)c(F)c(C(F)(F)F)c(F)c1F [octafluorotoluene]
Settings	mass density [kg/m3]	vapor or sublimation pressure [kPa]
288.15 K	1682.8	–
288.23 K	–	2.18
293.15 K	1672.2	–
293.2 K	–	2.95
298.15 K	1661.6	–
298.28 K	–	3.87
303.15 K	1650.9	–
303.18 K	–	5.09
308.15 K	1640.2	6.54
313.15 K	1629.4	8.43
318.15 K	–	10.69
323.15 K	–	13.38
328.45 K	–	16.86
333.93 K	–	21.31

FC1(F)C(F)(F)C(F)(F)C2(F)C(F)(F)C(F)(F)C(F)(F)C(F)(F)C2(F)C1(F)F (centres undefined) [perfluorodecalin]
Settings	mass density [kg/m3]	vapor or sublimation pressure [kPa]
288.15 K	1952.8	–
288.25 K	–	0.57
293.15 K	1941.7	–
293.25 K	–	0.73
298.15 K	1930.5	–
298.21 K	–	0.91
303.15 K	1919.2	–
303.29 K	–	1.25
308.23 K	–	1.59
313.15 K	1896.6	–
313.22 K	–	2.05
318.21 K	–	2.66
323.18 K	–	3.45
328.17 K	–	4.41
333.2 K	–	5.47

FC(F)(F)C(F)(F)C(F)(F)C(F)(F)C(F)(F)C(F)(F)F [perfluorohexane]
Settings	mass density [kg/m3]	vapor or sublimation pressure [kPa]
288.15 K	1705.6	–
288.31 K	–	18.78
293.15 K	1691	–
293.22 K	–	23.58
298.09 K	–	29.28
298.15 K	1676.1	–
302.98 K	–	36.19
303.15 K	1661.1	–
307.97 K	–	44.38
313.15 K	1630.2	–
313.17 K	–	54.56
318.15 K	–	65.86
323.13 K	–	78.91
328.11 K	–	94.08
333.1 K	–	111.39
